Laboratory results as given in US20040115483A1, “Crystal modification of a cyclic depsipeptide having improved strength” (priority 2001, published 2004).
Each block holds one compound with its values, some of them ahead of it.

Tests used:
Haemonchus Contortus = assay: Egg reduction test (eggs per gram of faeces) in experimentally infected sheep; format: in vivo; details: oral (gelatin capsule), 1 sheep, EPG
Method: Effectiveness of Forms I-IV of the Depsipeptide of the Formula (I) at Different Oral Dosages Against Haemonchus Contortus in Sheep
Sheep (Merino or Blackhead breed, 25-35 kg of body weight) were experimentally infected with 5000H contortus L3 larvae and treated with the formulated test substance at the end of the prepatency time of the parasite. The test compounds were administered orally (gelatin capsule). The anthelmintic effectiveness of the test substances was measured as a function of reduction of the number of eggs per gram of faeces. To this end, fresh faeces from the test animals were processed according to the McMaster method, modified according to Wetzel, and the number of eggs was determined. The number of eggs was determined at regular intervals before and after the treatment. The anthelmintic effectiveness was defined as follows: 3=>95%, 2=75-95%, 1=50-75% and 0=<50% reduction in eggs (cf. also G. von Samson-Himmelstjerna, A. Harder, T. Schnieder, J. Kalbe, N. Mencke (2000) In vivo activities of the new anthelmintic depsipeptide PF1022A. Parasitol. Res. 86:194-199).

Cooperia Oncophora = assay: Slaughter test (reduction of number of worms in small intestine) in experimentally infected cattle; format: in vivo; details: oral, 3 cattle, slaughter 10 days after treatment
Method: Effectiveness of Forms I and IV of the Depsipeptide of the Formula (I) at Different Oral Dosages Against Cooperia Oncophora in Cattle
Cattle (breed: Hostein Friesean, species: Bos taurus, calves or young cattle of up to about 200 kg) were experimentally infected with 15,000 C. oncophora L3 larvae. After successful infection (prepatency time about 18-21 days) the number of eggs per gram of faeces was determined 3 times within one week. The animals were then (at day 0=day of the treatment) treated orally (gelatin capsule) or subcutaneously with the formulated test substance. The anthelmintic effectiveness of the test substances was determined as a function of the reduction of the number of worms (in % of the untreated control) in the small intestine after the animals had been slaughtered (10 days after the treatment) (cf. also G. von Samson-Himmelstjerna, A. Harder, T. Schnieder, J. Kalbe, N. Mencke (2000) In vivo activities of the new anthelmintic depsipeptide PF1022A. Parasitol. Res. 86: 194-199.).
The effectiveness in the slaughter experiment is stated in % reduction in worms, compared to the untreated control.

[1] = Thermodynamic stability of the crystal forms; format: physicochemical; details: comparison of forms I-IV
[2] = Bioavailability of the crystal forms; format: in vivo; details: comparison of forms I-IV

SMILES: CC(C)C[C@H]1C(=O)O[C@H](Cc2ccc(N3CCOCC3)cc2)C(=O)N(C)[C@@H](CC(C)C)C(=O)O[C@H](C)C(=O)N(C)[C@@H](CC(C)C)C(=O)O[C@H](Cc2ccc(N3CCOCC3)cc2)C(=O)N(C)[C@@H](CC(C)C)C(=O)O[C@H](C)C(=O)N1C [Form IV]
- Effectiveness (reduction of eggs per gram of faeces) (Haemonchus Contortus; dosage 0.1 mg/kg, listed as IV): 0 (1 Sheep, EPG) (0 = effectiveness ≦ 50 %)
- Effectiveness (reduction of eggs per gram of faeces) (Haemonchus Contortus; dosage 0.5 mg/kg, listed as IV): 0 (1 Sheep, EPG) (0 = effectiveness ≦ 50 %)
- Effectiveness (reduction of eggs per gram of faeces) (Haemonchus Contortus; dosage 1.0 mg/kg): 3 (1 Sheep, EPG) (3 = effectiveness > 95%)
- Effectiveness (% reduction in worms, compared to the untreated control) (Cooperia Oncophora; dosage 1.0 mg/kg, listed as IV): 43.09% (3 cattle, slaughter test)
- Effectiveness (% reduction in worms, compared to the untreated control) (Cooperia Oncophora; dosage 2.0 mg/kg): 99.15% (3 cattle, slaughter test)
- Thermodynamic stability (rank among the four forms) ([1]; listed as form IV): thermodynamically fourth most stable form

- Thermodynamic stability (rank among the four forms) ([1]; listed as form I): thermodynamically most stable form
- Bioavailability (rank among the forms) [2]: greatest bioavailability
SMILES: CC(C)C[C@H]1C(=O)O[C@H](Cc2ccc(N3CCOCC3)cc2)C(=O)N(C)[C@@H](CC(C)C)C(=O)O[C@H](C)C(=O)N(C)[C@@H](CC(C)C)C(=O)O[C@H](Cc2ccc(N3CCOCC3)cc2)C(=O)N(C)[C@@H](CC(C)C)C(=O)O[C@H](C)C(=O)N1C [Form I]
- Effectiveness (reduction of eggs per gram of faeces) (Haemonchus Contortus; dosage 0.1 mg/kg, listed as I): 3 (1 Sheep, EPG) (3 = effectiveness > 95%)
- Effectiveness (reduction of eggs per gram of faeces) (Haemonchus Contortus; dosage 0.5 mg/kg, listed as I): 3 (1 Sheep, EPG) (3 = effectiveness > 95%)
- Effectiveness (% reduction in worms, compared to the untreated control) (Cooperia Oncophora; dosage 1.0 mg/kg, listed as I): 93.81% (3 cattle, slaughter test)

SMILES: CC(C)C[C@H]1C(=O)O[C@H](Cc2ccc(N3CCOCC3)cc2)C(=O)N(C)[C@@H](CC(C)C)C(=O)O[C@H](C)C(=O)N(C)[C@@H](CC(C)C)C(=O)O[C@H](Cc2ccc(N3CCOCC3)cc2)C(=O)N(C)[C@@H](CC(C)C)C(=O)O[C@H](C)C(=O)N1C [Form II]
- Effectiveness (reduction of eggs per gram of faeces) (Haemonchus Contortus; dosage 0.1 mg/kg, listed as II): 0 (1 Sheep, EPG) (0 = effectiveness ≦ 50 %)
- Effectiveness (reduction of eggs per gram of faeces) (Haemonchus Contortus; dosage 0.5 mg/kg, listed as II): 0 (1 Sheep, EPG) (0 = effectiveness ≦ 50 %)

SMILES: CC(C)C[C@H]1C(=O)O[C@H](Cc2ccc(N3CCOCC3)cc2)C(=O)N(C)[C@@H](CC(C)C)C(=O)O[C@H](C)C(=O)N(C)[C@@H](CC(C)C)C(=O)O[C@H](Cc2ccc(N3CCOCC3)cc2)C(=O)N(C)[C@@H](CC(C)C)C(=O)O[C@H](C)C(=O)N1C [Form III]
- Effectiveness (reduction of eggs per gram of faeces) (Haemonchus Contortus; dosage 0.1 mg/kg, listed as III): 1 (1 Sheep, EPG) (1 = effectiveness 50% to 75%)
- Effectiveness (reduction of eggs per gram of faeces) (Haemonchus Contortus; dosage 0.5 mg/kg, listed as III): 1 (1 Sheep, EPG) (1 = effectiveness 50% to 75%)
